Reference: ChEMBL document CHEMBL4219106, “Discovery and optimization of tetrahydropyrido[4,3-d]pyrimidine derivatives as novel ATX and EGFR dual inhibitors” (Bioorg Med Chem, 2018)
pIC50: −log10 of the molar value. Active and inactive are the calls of the source. The calls are words filed in the database; no cut-off is given here.

Key:
[1] = Antifibrotic activity against Wistar rat cardiac fibroblasts assessed as inhibition of cell proliferation at 20 uM after 12 hrs by MTT assay relative to control; assay type: functional
RAW264.7 [2] = test: Anti-inflammatory activity in mouse RAW264.7 cells assessed as inhibition of LPS-induced NO production by measuring NO level at 10 ug/ml preincubated for 1 hr followed by LPS-stimulation measured after 24 hrs by Griess assay; assay type: functional
A549 = test: Cytotoxicity against human A549 cells assessed as reduction in cell viability after 72 hrs by MTT assay; assay type: functional, cell-based; conditions: A549, 72 h
NCI-H1975 = test: Cytotoxicity against human NCI-H1975 cells assessed as reduction in cell viability after 72 hrs by MTT assay; assay type: functional, cell-based; conditions: NCI-H1975, 72 h
MKN-45 = test: Cytotoxicity against human MKN45 cells assessed as reduction in cell viability after 72 hrs by MTT assay; assay type: functional, cell-based; conditions: MKN-45, 72 h
[3] = Cytotoxicity against human SGC cells assessed as reduction in cell viability after 72 hrs by MTT assay; assay type: functional, cell-based
RAW264.7 [4] = test: Anti-inflammatory activity in mouse RAW264.7 cells assessed as inhibition of LPS-induced NO production by measuring NO level at 2.5 ug/ml preincubated for 1 hr followed by LPS-stimulation measured after 24 hrs by Griess assay; assay type: functional
RAW264.7 [5] = test: Anti-inflammatory activity in mouse RAW264.7 cells assessed as inhibition of LPS-induced NO production by measuring NO level at 5 ug/ml preincubated for 1 hr followed by LPS-stimulation measured after 24 hrs by Griess assay; assay type: functional
[6] = Inhibition of ATX (unknown origin); design: species or system Homo sapiens
[7] = Inhibition of glycosylated human ATX using substrate FS-3 preincubated for 45 mins followed by substrate addition measured after 45 mins by fluorescence assay

Row | pIC50 [6] | pIC50 [7] | SMILES | inhibition at 20 µM [1] | Activity (RAW264.7 [2]) | pIC50 (A549) | pIC50 (NCI-H1975) | pIC50 (MKN-45) | pIC50 [3] | inhibition (RAW264.7 [2]) | inhibition (RAW264.7 [4]) | inhibition (RAW264.7 [5])
1 | – | – | CSc1ccc(/C=N/NC(=O)N2CCc3ncnc(Nc4ccc(F)c(Cl)c4)c3C2)cc1 | 65 to 83% | <1.9 µM | – | – | – | – | – | – | –
2 | – | – | O=C(N/N=C/c1ccc(F)cc1)N1CCc2ncnc(Nc3ccc(F)c(Cl)c3)c2C1 | – | – | 4.94 | 4.19 | 4.96 | 4.77 | – | – | –
3 | – | – | O=C(N/N=C/c1ccccc1)N1CCc2ncnc(Nc3cccc(Br)c3)c2C1 | – | <1.9 µM | 4.64 | 4.42 | 4.65 | 4.78 | – | – | –
4 | – | – | O=C(N/N=C/c1cccc(Br)c1)N1CCc2ncnc(Nc3cccc(Br)c3)c2C1 | – | – | – | – | – | – | Active | Active | Active
5 | – | – | O=C(N/N=C/c1ccc(F)cc1)N1CCc2ncnc(Nc3cccc(C(F)(F)F)c3)c2C1 | – | – | 5.20 | 4.26 | 5.40 | 5.37 | – | – | –
6 | – | – | O=C(N/N=C/c1ccccc1)N1CCc2ncnc(Nc3ccc(F)c(Cl)c3)c2C1 | – | – | 4.50 | 4.54 | 4.64 | 5.13 | – | – | –
7 | – | – | O=C(N/N=C/c1ccc(Br)cc1)N1CCc2ncnc(Nc3cccc(Br)c3)c2C1 | 65 to 83% | – | 5.18 | 4.29 | 4.63 | 5.16 | Active | Active | Active
8 | 8.59 | 7.98 | O=C(CCc1nc2ccccc2s1)N1CCc2ncnc(Cc3ccc(F)cc3)c2C1 | 68% | – | – | – | – | – | – | – | –
9 | – | – | O=C(N/N=C/c1ccco1)N1CCc2ncnc(Nc3cccc(Br)c3)c2C1 | – | – | 4.33 | < 3.70 | 4.18 | < 3.70 | – | – | –
10 | – | – | O=C(N/N=C/c1cccnc1)N1CCc2ncnc(Nc3cccc(Br)c3)c2C1 | – | – | 4.14 | < 3.70 | < 3.70 | < 3.70 | – | – | –
11 | – | – | O=C(N/N=C/c1cccs1)N1CCc2ncnc(Nc3cccc(C(F)(F)F)c3)c2C1 | 65 to 83% | <1.9 µM | 4.37 | 3.77 | 4.44 | 4.61 | – | – | –
12 | – | – | Cc1ccc(/C=N/NC(=O)N2CCc3ncnc(Nc4ccc(F)c(Cl)c4)c3C2)cc1C | – | – | 4.81 | 5.17 | 4.74 | 4.94 | – | – | –
